2 compounds from PMC6525040 (ChemMedChem, 2019) can be followed below.

Experiment [1] addresses T1, Human RAD51 protein binding to ssDNA (Homo sapiens, UniProt Q06609).
T1 sequence (Q06609 1-339): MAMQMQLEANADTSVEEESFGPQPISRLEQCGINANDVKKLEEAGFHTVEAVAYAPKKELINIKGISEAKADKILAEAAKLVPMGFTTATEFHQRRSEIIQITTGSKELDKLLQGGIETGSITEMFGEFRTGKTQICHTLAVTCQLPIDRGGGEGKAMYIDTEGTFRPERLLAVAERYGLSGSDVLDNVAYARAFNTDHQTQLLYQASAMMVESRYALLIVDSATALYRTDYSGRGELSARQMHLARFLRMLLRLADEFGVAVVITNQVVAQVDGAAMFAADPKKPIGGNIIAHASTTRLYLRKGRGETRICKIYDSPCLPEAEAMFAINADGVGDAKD
Briefly: RAD51-DNA binding assay. As to conditions: gel shift, 0.5 μM RAD51. Background: Mobility shift assays separate free from complexed probe on a gel.

The subject of experiment [2] is relaxed covalently-closed circular dsDNA plasmid (pRS306). Put plainly: dsDNA intercalation assay. Format: binding. As to conditions: 10 μM; DMSO vehicle defined as 0, saturation of the endpoint = 1.

Take `O=C1C(Cl)=C(N2CCOCC2)C(=O)N1c1ccc(Cl)c(Cl)c1` [RI-1]: the “effect on RAD51 binding to ssDNA / RAD51-ssDNA nucleoprotein filaments (in words)” value in experiment [1] was “inhibited”. Take `CCN(CC)CCCC(C)Nc1ccnc2cc(Cl)ccc12` (centres unmarked) [chloroquine]: the intercalation score in experiment [2] is 1.
